The nature of series [1]: MDCK wild type permeability/efflux. The note with it: dog.
A short description of series [2]: Mouse hepatocyte stability. In kind it is in vitro ADME. The note with it: hepatocytes; for microsomal CLint: read-out: Mouse hepatocyte stability, Intrinsic clearance.
Series [3] is described as follows: Screening PK in mice after 30 mg/kg po. Particulars: for Cmax at 2 h / concentration at 6 h: mouse, plasma, po, 30 mg/kg.
Series [4] is described as follows: Human hepatocyte stability. In kind it is in vitro ADME. The note with it: human, hepatocytes; for half-life: read-out: Human hepatocyte stability, Half-life; for microsomal CLint: read-out: Human hepatocyte stability, Intrinsic clearance.
A short description of series [5]: in vitro. The note with it: human, microsomes.
Series [6] in a line: Murine plasma protein binding. The note with it: for recovery at 4 h: mouse, plasma.
A short description of series [7]: Human plasma-protein binding. Particulars: for recovery at 4 h: human, plasma.
Series [8] addresses T1, SIK3 (Homo sapiens (Human), UniProt Q9Y2K2). Kind of series: SIK3 kinase inhibition (IC50).
A short description of series [9]: in vitro. Particulars: mouse, microsomes.
For the next series, the target named is SIK2 (Homo sapiens (Human), UniProt Q9H0K1). Briefly: SIK2 kinase inhibition (IC50).
In another series the target is MDR1 (P-gp) (Homo sapiens (Human), UniProt P08183). Briefly: MDR1-MDCK effective efflux assay. The note with it: dog; for Papp: MDCK-MDR1; for efflux ratio: Table 5.1B.
Another series concerns the target SRC (GST-HIS-tag) (Homo sapiens (Human), UniProt P12931). It is filed as biochemical.
The target of series [10] is T1, SIK3. Particulars: read-out: SIK3 IC50.
For series [11] the following is noted: mouse, in vivo, po, 30 mg/kg.
Series [12] concerns MC38 murine tumour cell line. Briefly: TNF-sensitised cell viability assay (CellTiter-Glo). Particulars: read-out: MC38 IC50 (nM at 100 ng/mL TNF); 100 ng/mL TNF, 72 h. (In general: Cellular ATP, detected with luciferase, serves as a proxy for viable cell number.)
For series [13] the following is noted: microsomes.
The conditions of series [14]: microsomes. This is another data set of the same source.
Where [15] appears, read: Free plasma concentration after 6 h (nM), mice, 30 mg/kg po, 6 h.
[16] abbreviates: Plasma concentration after 6 h (nM), mice, 30 mg/kg po, 6 h.
[17] abbreviates: read-out: Kinase: IC50 (nM) SIK2.
Where [18] appears, read: MDCK-MDR1, MDCK-MDR1 cells, Mean Efflux Ratio (MDR1).
The mark [19] stands for this setting: MDCK-MDR1, P-gP driven efflux ratio (MDR1/wt).

The structures appear in SMILES notation. Read-outs that look alike come from different tables or passages of the source.

For orientation: Papp means a coefficient for how fast a substance crosses the barrier. A word on the efflux ratio: it is the permeability from basolateral to apical divided by that in the opposite direction, in the common usage. What is called half-life is the time in which the quantity being followed falls by half. Usually Cmax stands for the peak of the concentration-time curve.

For `Cc1nc(Nc2ncc(C(=O)Nc3c(CF)csc3Cl)s2)cc(N2CCN(CCO)CC2)n1` [Compound E3, N-(2-chloro-4-(fluoromethyl)thiophen-3-yl)-2-((6-(4-(2-hydroxyethyl)piperazin-1-yl)-2-methylpyrimidin-4-yl)amino)thiazole-5-carboxamide], the Papp in series [1] was 7 ×10⁻⁶ cm/s; on MDR1 (P-gp) it was 2 ×10⁻⁶ cm/s. The efflux ratio in [1] is 4.3; at MDR1 (P-gp) (setting [18]) it was 53; at MDR1 (P-gp) (setting [19]), 12. The half-life in [2] stood at 63 min; in [4] it was 34 min; in “in vitro [5]”, 16 min; in the series “in vitro [9]”, 18 min. Also, the microsomal CLint was 22 µL/min/mg in series [2], 41 µL/min/mg in series [4], 86 µL/min/mg in “in vitro [5]” and 76 µL/min/mg in the series “in vitro [9]”. Moreover, in series [3], the peak level (Cmax at 2 h) was 889 ng/mL. Also, the concentration at 6 h in series [3] (setting [15]) was 3.7 nM; in series [3] (setting [16]), 73 nM. Besides, in series [6] (Table 5.1A), the “Murine plasma protein binding, Percentage unbound (%)” value is listed as 4%. Besides, the recovery at 4 h in series [6] is 89%; in series [7] it was 76%. In addition, the “Human plasma-protein binding, Percentage unbound (%)” value in [7] (Table 5.1A) is listed as 2%. In addition, the IC50 was 20 to 50 nM on SIK3 [8] and less than 10 nM at SIK2 (setting [17]).
`Cc1nc(Nc2ncc(C(=O)Nc3c(C)ccnc3C)s2)cc(N2CCN(CCO)CC2)n1` [Compound C1, N-(2,4-dimethylpyridin-3-yl)-2-((6-(4-(2-hydroxyethyl)piperazin-1-yl)-2-methylpyrimidin-4-yl)amino)thiazole-5-carboxamide]: the IC50 on SRC (GST-HIS-tag) was less than 0.0015 µM; on SIK3 [10] it was 0.867 µM.
Turning to `Cc1nc(Nc2ncc(C(=O)Nc3c(Cl)csc3C)s2)cc(N2CCN(CCO)CC2)n1` [Compound D1], in series [11], the “Free concentration (nM) at 2 hours” value is reported as 80 nM, the “Free concentration (nM) at 6 hours” value stood at 4 nM and the “Free concentration (nM) at 12 hours” value is 2.14 nM. Besides, the IC50 in series [12] is less than 200 nM.
`Cc1nc(Nc2ncc(C(=O)Nc3c(CF)csc3Cl)s2)cc(N2CCNC(=O)C2)n1` [Compound E12, N-(2-chloro-4-(fluoromethyl)thiophen-3-yl)-2-((2-methyl-6-(3-oxopiperazin-1-yl)pyrimidin-4-yl)amino)thiazole-5-carboxamide]: the IC50 against SIK3 [8] is 50 to 100 nM; at SIK2 (setting [17]) it was less than 20 nM.
Turning to `Cc1nc(Nc2ncc(C(=O)Nc3c(CF)csc3Cl)s2)cc(N2CCN(C)C(C)C2)n1` (single isomer, unassigned) [Compound E10-Ent-II, N-(2-chloro-4-(fluoromethyl)thiophen-3-yl)-2-((6-(3,4-dimethylpiperazin-1-yl)-2-methylpyrimidin-4-yl)amino)thiazole-5-carboxamide], at SIK3 [8] (separated enantiomers), the “IC50 against SIK3 relative to IC50 of E10-Ent-I” value is “approximately half”.
`Cc1nc(Nc2ncc(C(=O)Nc3cccnc3C)s2)cc(N2CCN(CCO)CC2)n1` [Compound C6, 2-((6-(4-(2-hydroxyethyl)piperazin-1-yl)-2-methylpyrimidin-4-yl)amino)-N-(2-methylpyridin-3-yl)thiazole-5-carboxamide]: the IC50 at SRC (GST-HIS-tag) was less than 0.0015 µM; on SIK3 [10], 0.987 µM.
In the case of `CC(=O)N1CCN(c2cc(Nc3ncc(C(=O)Nc4c(C)csc4Cl)s3)nc(C)n2)CC1` [Compound D8], the IC50 at SIK3 [10] is roughly 0.15 µM.
`Cc1nc(Nc2ncc(C(=O)Nc3c(C(F)(F)F)csc3Cl)s2)cc(N2CCN(CCO)CC2)n1` [Compound E5, N-(2-chloro-4-(trifluoromethyl)thiophen-3-yl)-2-((6-(4-(2-hydroxyethyl)piperazin-1-yl)-2-methylpyrimidin-4-yl)amino)thiazole-5-carboxamide]: the IC50 fell in the range of 50 to 100 nM against SIK3 [8] and 20 to 50 nM on SIK2.
Turning to `Cc1nc(Nc2ncc(C(=O)Nc3c(C)cncc3C)s2)cc(N2CCN(CCO)CC2)n1` [Compound C5, N-(3,5-dimethylpyridin-4-yl)-2-((6-(4-(2-hydroxyethyl)piperazin-1-yl)-2-methylpyrimidin-4-yl)amino)thiazole-5-carboxamide], the IC50 is less than 0.0015 µM against SRC (GST-HIS-tag) and 0.34 µM at SIK3 [10].
With `Cc1nc(Nc2ncc(C(=O)Nc3c(CF)csc3Cl)s2)cc(N2CCCN(C)CC2)n1` [Compound E11, N-(2-chloro-4-(fluoromethyl)thiophen-3-yl)-2-((2-methyl-6-(4-methyl-1,4-diazepan-1-yl)pyrimidin-4-yl)amino)thiazole-5-carboxamide], the Papp in series [1] is 8 ×10⁻⁶ cm/s; on MDR1 (P-gp), 3 ×10⁻⁶ cm/s. Also, the efflux ratio in series [1] worked out at 2.6; at MDR1 (P-gp) (setting [18]) it was 61; on MDR1 (P-gp) (setting [19]), 24. Besides, the half-life in series [2] came to 56 min; in series [4], 26 min; in the series “in vitro [5]”, 19 min; in “in vitro [9]” it was 21 min. For the same molecule, the microsomal CLint stood at 25 µL/min/mg in series [2], 55 µL/min/mg in series [4], 72 µL/min/mg in the series “in vitro [5]” and 66 µL/min/mg in the series “in vitro [9]”. Besides, in series [3] (mice, 30 mg/kg po, 6 h), the “fold improvement of free serum concentration over C7” value was 2 fold. The “fold improvement of total serum concentration over C7” value in series [3] (mice, 30 mg/kg po, 6 h) is given as 3.1 fold. The molecule also showed a Cmax at 2 h in [3] of 487 ng/mL. Also, the concentration at 6 h in [3] (setting [15]) was found to be 7.7 nM; in series [3] (setting [16]), 219 nM. Further, the “Murine plasma protein binding, Percentage unbound (%)” value in series [6] (Table 5.1A) was determined as 1%. The results for the recovery at 4 h in series [6] and in series [7] were 98% and 77%, respectively. Moreover, in series [7] (Table 5.1A), the “Human plasma-protein binding, Percentage unbound (%)” value is recorded as 3%. For the same molecule, the figures for the IC50 at SIK3 [8] and on SIK2 (setting [17]) were 20 to 50 nM and less than 10 nM, respectively.
Regarding `Cc1nc(Nc2ncc(C(=O)Nc3c(Cl)csc3F)s2)cc(N2CCN(CCO)CC2)n1` [Compound E2, N-(4-chloro-2-fluorothiophen-3-yl)-2-((6-(4-(2-hydroxyethyl)piperazin-1-yl)-2-methylpyrimidin-4-yl)amino)thiazole-5-carboxamide], the IC50 against SIK3 [8] is 50 to 100 nM; on SIK2 (setting [17]) it was less than 10 nM.
In the case of `Cc1nc(Nc2ncc(C(=O)Nc3c(Cl)csc3F)s2)cc(N2CCN(C)CC2)n1` [Compound E15, N-(4-chloro-2-fluorothiophen-3-yl)-2-((2-methyl-6-(4-methylpiperazin-1-yl)pyrimidin-4-yl)amino)thiazole-5-carboxamide], the IC50 against SIK3 [8] was 20 to 50 nM; on SIK2 (setting [17]), less than 20 nM.
On to `Cc1nc(Nc2ncc(C(=O)Nc3c(C(F)F)csc3Cl)s2)cc(N2CCN(C)CC2)n1` [Compound E13, N-(2-chloro-4-(difluoromethyl)thiophen-3-yl)-2-((2-methyl-6-(4-methylpiperazin-1-yl)pyrimidin-4-yl)amino)thiazole-5-carboxamide], for which the results for the IC50 at SIK3 [8] (read-out: Kinase: IC50 (nM) SIK3) and at SIK2 (setting [17]) were less than 20 nM and less than 10 nM, respectively.
Regarding `Cc1nc(Nc2ncc(C(=O)Nc3c(Cl)csc3Cl)s2)cc(N2CCN(CCO)CC2)n1` [Compound D7], in series [11], the “Free concentration (nM) at 2 hours” value is 43 nM, the “Free concentration (nM) at 6 hours” value worked out at 5 nM and the “Free concentration (nM) at 12 hours” value was 1.10 nM.
On to `Cc1nc(Nc2ncc(C(=O)Nc3c(Br)ccnc3C)s2)cc(N2CCN(CCO)CC2)n1` [Compound C3, N-(4-bromo-2-methylpyridin-3-yl)-2-((6-(4-(2-hydroxyethyl)piperazin-1-yl)-2-methylpyrimidin-4-yl)amino)thiazole-5-carboxamide], for which, at SIK3 [10], the IC50 worked out at 2.78 µM.
With `Cc1nc(NCCO)cc(Nc2ncc(C(=O)Nc3c(Cl)ccnc3C)s2)n1` [Compound C11, N-(4-chloro-2-methylpyridin-3-yl)-2-((6-((2-hydroxyethyl)amino)-2-methylpyrimidin-4-yl)amino)thiazole-5-carboxamide], the IC50 against SRC (GST-HIS-tag) was less than 0.0015 µM; at SIK3 [10], 1.51 µM.
With `Cc1nc(Nc2ncc(C(=O)Nc3c(C)cncc3Cl)s2)cc(N2CCN(CCO)CC2)n1` [Compound C4, N-(3-chloro-5-methylpyridin-4-yl)-2-((6-(4-(2-hydroxyethyl)piperazin-1-yl)-2-methylpyrimidin-4-yl)amino)thiazole-5-carboxamide], the Human liver microsomal stability, Intrinsic clearance in series [13] came to 115 µL/min/mg. The Mouse liver microsomal stability, Intrinsic clearance (L/min/mg) in [14] was 38 µL/min/mg. Moreover, the IC50 on SRC (GST-HIS-tag) is less than 0.0015 µM; at SIK3 [10], 0.677 µM. For the same molecule, the half-life amounted to 12 min in the series “in vitro [5]” and 37 min in the series “in vitro [9]”. In series [6] (Table 5A), the “Murine plasma protein binding, Percentage unbound (%)” value is reported as 14%. Besides, in series [7] (Table 5A), the “Human plasma-protein binding, Percentage unbound (%)” value came to 2%.
